Data published in patent publication US20070275877A1, “Methods for Treating or Ameliorating Ghrelin-Associated Diseases and Disorders” (AMYLIN PHARMACEUTICALS, INC., priority 2003, published 2007).
No end group written: not given here.

Tests used:
[1] = Crossover study of pramlintide in humans: ad libitum buffet meal intake (Example 6); format: in vivo, human; conditions: single SC dose of pramlintide 30 μg
Description: (§1) Ghrelin levels were measured in a single-center, randomized, double-blind, placebo-controlled, two-period, crossover study was designed to examine the acute effects of pramlintide, an amylin analog, in humans. The study consisted of two treatment periods (Period 1/Visit 2 and Period 2/Visit 3) with at least 72 h between each treatment period. After successful completion of all Screening procedures (including informed consent), subjects (n=15) were randomly assigned to one of two treatment sequences (pramlintide: placebo or placebo: pramlintide). Subjects were instructed to fast from 2200 h on the evening before both treatment periods until the start of the test (the next morning).
On the mornings of Period 1 and Period 2, an intravenous cannula was placed in an antecubital vein for blood sampling (t=−1 h). Vital signs and weight were measured at this time. During each treatment period, subjects received study medication (pramlintide or placebo) immediately followed by a standardized, liquid preload meal, which was to be consumed within 3 min. Subjects received a single SC dose of pramlintide 30 μg or placebo. One hour later (t=1 h), subjects consumed an ad libitum buffet meal, which was offered for 45 min. The buffet meal included a selection of carbohydrate-rich foods in quantities in excess of what subjects were expected to eat. Venous blood samples were collected over a 5.5-h period (t=−0.5 h to 5 h) for the measurement of postprandial metabolic and hormonal responses. Procedures for Period 2 were exactly as those described for Period 1, only the alternate treatment was given.

ghrelin levels = test: Crossover study of pramlintide in humans: ghrelin levels (Example 6); format: in vivo, human; conditions: single SC dose of pramlintide 30 μg, n=15, FIG. 6
Description: FIG. 6 depicts a graph of the effect of an amylin analog on ghrelin levels in humans.
as §1
On the mornings of Period 1 and Period 2, an intravenous cannula was placed in an antecubital vein for blood sampling (t=−1 h). Vital signs and weight were measured at this time. During each treatment period, subjects received study medication (pramlintide or placebo) immediately followed by a standardized, liquid preload meal, which was to be consumed within 3 min. Subjects received a single SC dose of pramlintide 30 μg or placebo. […] The buffet meal included a selection of carbohydrate-rich foods in quantities in excess of what subjects were expected to eat. […]

active ghrelin [2] = test: Amylin receptor antagonist i.v., plasma ghrelin in fed rats (Example 4, FIG. 4B); format: in vivo; conditions: AC187 3 mg/rat i.v.; five minutes after administration; fed animals; saline controls 1.4±6.4% decrease, P<0.03
Description: (§2) FIGS. 4A and 4B depict graphs of the effects of an amylin receptor antagonist on ghrelin levels in an animal model.
(§3) The following methods apply to Examples 1-4 as indicated. Male Harlan Sprague Dawley® (HSD) rats were housed at 22.8±0.8° C. in a 12:12 hour light:dark cycle. All experiments were performed in the light cycle. Animals were fasted for approximately 20 hours before experimentation (examples 1, 2 and 3) or fed ad libidum (Example 4). All animals were given free access to water until the start of the experiment. The animals' tails were anesthetized with 20% benzocaine (Hurricaine, Beutlich Pharmaceutical, Waukegan, Ill.), and blood samples were collected from the tail vein. Total and active ghrelin concentrations were measured using Linco RIA kits GHRA-89HK and GHRA-88HK, respectively.
In a second, related experiment, baseline blood samples for ghrelin to be assayed were taken at t=0 minutes. AC187 (lot#AR2237-18B, Amylin Pharmaceuticals, Inc.), at a dose of 3 mg/rat in 300 μl of saline or saline vehicle alone, was given by intravenous injection in the tail vein at t=0. Plasma samples were collected at time 0, 5, and 15 minutes. Five minutes after administration of AC187 in fed animals, active ghrelin concentrations increased by 16.3±4.0%, as compared to a 1.4±6.4% decrease in saline controls (P<0.03), see FIG. 4B.

active ghrelin [3] = test: Amylin receptor antagonist s.c., plasma ghrelin in non-fasted rats given pentagastrin (Example 4, FIG. 4A); format: in vivo; conditions: AC187 3 mg/rat s.c. at -5 min, pentagastrin 125 μg/kg s.c. at 0 min
Description: as §2, §3
These experiments were conducted to determine whether the amylin receptor antagonist AC187 blocked an effect of endogenous amylin on plasma ghrelin levels in non-fasted rats. Baseline blood samples for ghrelin to be assayed were taken at t=−10 min. AC187 (lot #AR741-72, Amylin Pharmaceuticals), at a dose of 3 mg/rat in 300 μl of saline, or saline vehicle alone, was given by subcutaneous injection (n=6, 8 respectively) at t=−5 min. Animals additionally received a subcutaneous injection of pentagastrin (Sigma, Lot#050K1525) in the amount of 125 μg/kg body mass at time=0 min. […]

[4] = cited from earlier work
[5] = treated test animals; e.g., provoking marked hyperlactemia followed by hyperglycemia; cited from earlier work
total plasma ghrelin [6] = test: Dose-response effects of amylin on ghrelin levels in fasted rats (Example 3); format: in vivo, rat
Description: FIGS. 3A and 3B depict graphs of dose-response effects of rat amylin on ghrelin levels in an animal model.
as §3
These experiments were conducted to identify dose-response effects of amylin on ghrelin levels in fasted rats. Rat amylin (lot #AR2081-42A, Amylin Pharmaceuticals) in 100 μl saline was given by subcutaneous injections at doses: 0, 1, 10, 30 and 100 μg/kg (n=5, 4, 5, 5, 4 respectively) at time=0 min. Blood plasma samples were collected at time=0, 10, 20, 30, 60, 90 and 120 min after amylin injection. […] Pairwise statistical analyses were performed using Student's t-test (Instat v2.0, GraphPad Software Inc, San Diego). Results are reported as mean±standard error of the mean, and P<0.05 is used as the level of significance.

total plasma ghrelin [7] = test: Effect of rat amylin on ghrelin levels with and without pentagastrin in fasted rats (Example 2); format: in vivo
Description: FIGS. 2A and 2B depict graphs of the effect of rat amylin on ghrelin levels in an animal model in the presence and absence of pentagastrin.
as §3
These experiments were conducted to examine whether exogenous amylin inhibits ghrelin secretion independent of pentagastrin stimulation. Fasted rats were given either a subcutaneous injection of saline or of 30 μg/kg rat amylin (FIG. 2A) or a subcutaneous injection of either saline or 125 μg/kg pentagastrin (Sigma, Lot#050K1525) (FIG. 2B) at time=0 min. […]

[8] = test system: active (acylated) ghrelin; test: Effect of rat amylin on ghrelin levels in pentagastrin-treated fasted rats (Example 1); format: in vivo; conditions: 10 μg rat amylin s.c. 20 min after 125 μg/kg pentagastrin s.c.
Description: FIG. 1 depicts a graph of the effect of exogenously administered rat amylin on endogenous ghrelin levels in an animal model. 125 μg pentagastrin (PG) was administered at t=0 and 10 μg amylin was administered at t=20 (dotted lines).
as §3
HSD rats were subjected to periodic blood sampling from the topically anesthetized tail and ghrelin levels were assayed. At t=0, rats (n=6) were injected s.c. with 125 μg/kg pentagastrin (Sigma) to stimulate gastric acid secretion (PG=0 min in FIG. 1), and 20 min later were injected subcutaneously (s.c.) with 10 μg rat amylin. The blood samples were analyzed for total and active (acylated) ghrelin (Linco).

active ghrelin [9] = test: Amylin effect on ghrelin in area postrema-lesioned and sham operated rats (Example 5); format: in vivo, rat
Description: FIG. 5 depicts a graph of the effect of the area postrema on amylin's effect on ghrelin secretion.
In this experiment, fasted, Sprague-Dawley® rats with localized lesions of the area postrema (AP) made by vacuum aspiration 3 weeks before the experiments and sham operated rats (sham) were injected s.c. with amylin (30 μg/kg) or saline (n=4, 4 respectively). At t=0, 10, 20, 30, 60, 90 and 120 minutes after the s.c. injection, total ghrelin concentrations were measured and reports as % of the baseline.
Twenty minutes after a 30 μg/kg subcutaneous amylin injection in Sham rats, active ghrelin concentration decreased by 31.3±3.3%, while active ghrelin concentrations in saline controls increased by 23.5±22.1% (P<0.05).

CC[C@H](C)[C@H](NC(=O)[C@@H]1CCCN1C(=O)CNC(=O)[C@H](Cc1ccccc1)NC(=O)[C@H](CC(N)=O)NC(=O)[C@H](CC(N)=O)NC(=O)[C@H](CO)NC(=O)[C@H](CO)NC(=O)[C@H](Cc1c[nH]cn1)NC(=O)[C@@H](NC(=O)[C@H](CC(C)C)NC(=O)[C@H](Cc1ccccc1)NC(=O)[C@H](CC(N)=O)NC(=O)[C@H](C)NC(=O)[C@H](CC(C)C)NC(=O)[C@H](CCCNC(=N)N)NC(=O)[C@H](CCC(N)=O)NC(=O)[C@@H](NC(=O)[C@H](C)NC(=O)[C@@H]1CSSC[C@H](NC(=O)[C@@H](N)CCCCN)C(=O)N[C@@H](CC(N)=O)C(=O)N[C@@H]([C@@H](C)O)C(=O)N[C@@H](C)C(=O)N[C@@H]([C@@H](C)O)C(=O)N1)[C@@H](C)O)C(C)C)C(=O)N[C@@H](CC(C)C)C(=O)N1CCC[C@H]1C(=O)N1CCC[C@H]1C(=O)N[C@H](C(=O)N[C@@H](CC(N)=O)C(=O)N[C@H](C(=O)NCC(=O)N[C@@H](CO)C(=O)N[C@@H](CC(N)=O)C(=O)N[C@H](C(=O)N[C@@H](Cc1ccc(O)cc1)C(N)=O)[C@@H](C)O)C(C)C)[C@@H](C)O [pramlintide, ^25,28,29Pro-h-amylin]
duration of the meal time compared to placebo [1]: reduced | fat, carbohydrate, and protein intake compared to placebo [1]: proportionate reductions | total caloric intake of the buffet meal compared to placebo [1]: reduced | ghrelin levels following an ad libitum buffet meal compared to placebo (ghrelin levels): further reduced

Ac ^30Asn, ^32Tyr-sCT[8-32] [AC187]
increase of active ghrelin concentrations (active ghrelin [2]): 16.3±4.0% | active ghrelin concentrations compared to saline injected controls (active ghrelin [3]): higher

^18Arg^25,28Pro-h-amylin (KCNTATCATQRLANFLVRSSNNFGPILPSTNVGSNTY)
solubility characteristics compared to human amylin [4]: more desirable | amylin activity in vivo [5]: show amylin activity in vivo

^25Pro^26Val^28,29 Pro-h-amylin (KCNTATCATQRLANFLVHSSNNFGPVLPPTNVGSNTY)
solubility characteristics compared to human amylin [4]: more desirable

^28Pro-h-amylin (KCNTATCATQRLANFLVHSSNNFGAILPSTNVGSNTY)
amylin activity in vivo [5]: show amylin activity in vivo

des-^1Lys-h-amylin (CNTATCATQRLANFLVHSSNNFGAILSSTNVGSNTY; ends and bridges not checked; cysteine pairing not given here; UniProt P10997 35-70, looked up, fragment)
amylin activity in vivo [5]: show amylin activity in vivo

des-^1Lys^18Arg^25,28Pro-h-amylin
amylin activity in vivo [5]: show amylin activity in vivo

rat amylin (KCNTATCATQRLANFLVRSSNNLGPVLPPTNVGSNTY; not fully specified; ends and bridges not checked; UniProt P12969 38-74, looked up) [rat amylin peptide hormone (AC0128, Amylin Pharmaceuticals)]
inhibition of ghrelin at lowest dose (total plasma ghrelin [6]; amylin dose of 1 μg/kg s.c.): trend to inhibit ghrelin | reduction of ghrelin, significance (total plasma ghrelin [6]; amylin doses of 10 μg/kg and above s.c., P<0.05 level): statistically significant | total plasma ghrelin concentrations, dose-response (total plasma ghrelin [6]; rat amylin s.c. 0, 1, 10, 30 and 100 μg/kg, fasted rats, FIG. 3A): dose-dependent reduction | time of ghrelin concentration nadirs after amylin injection (total plasma ghrelin [6]; rat amylin s.c. 1-100 μg/kg, fasted rats): 60 to 90 min | plasma ghrelin compared to the control, amylin alone (total plasma ghrelin [7]; 30 μg/kg rat amylin s.c. without pentagastrin): reduced | total plasma ghrelin compared to the saline control (total plasma ghrelin [7]; 30 μg/kg rat amylin s.c., FIGS. 2A and 2B): reduction in total plasma ghrelin | time within which active ghrelin was reduced by 50% [8]: ≤ 1 h | reduction of active ghrelin ([8]; FIG. 1): 50% | difference in ghrelin concentration, amylin versus saline (active ghrelin [9]; AP-lesioned rats, 30 μg/kg s.c. amylin, P=0.24): no significant difference | increase of ghrelin concentration (active ghrelin [9]; AP-lesioned rats, 30 μg/kg s.c. amylin, saline +49.6±21.0%, P=0.24): 13.7±17.6% | decrease of active ghrelin concentration (active ghrelin [9]; Sham rats, twenty minutes after 30 μg/kg s.c. amylin, saline controls increased by 23.5±22.1%, P<0.05): 31.3±3.3%
